This note sets out measurements from ChEMBL document CHEMBL1201862, “PubChem BioAssay data set” (2004).

Activity calls are given as the source filed them.

Series [1] is described as follows: cytotoxicity dependent on PAX8, dose response, cell-based, plate reader, dry powder (AID 743049). It counts as functional.
The target in another series is Paired box protein Pax-8 (Homo sapiens, UniProt Q06710). Kind of series: inhibitors of PAX8-driven TPO luciferase reporter, dose response, RMG-I cells, cherry-pick (AID 687027).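 Further: luciferase reporter driven by Pax8 target thyroperoxidase promoter measured by SteadyGlo luminescence.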 Format: functional, cell-based.
The next series deals with Vero. Kind of series: cells. It counts as functional. Particulars: Chlorocebus sabaeus.
A short description of series [2]: PAX5 activity inhibitors, dose response, selectivity assay for PAX8 inhibitor project, cell-based, plate reader, dry powder samples (AID 743047).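 Further: HEK293 cells carrying a Pax5 driven CD19 promoter luciferase reporter; potency of inhibitors that lower reporter luminescence.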 Format: functional.
Series [3] in a line: inhibitors of Vif binding to APOBEC3G peptide, primary screen, biochemical, TR-FRET, GST-Vif 1-94, biotin-A3G peptide, dose response retest (AID 1117319).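 Further: TR-FRET signal of purified GST-Vif binding a biotinylated A3G peptide; inhibitors lower the FRET signal by blocking Vif and A3G binding.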 Format: functional. On the technique in general: Time-resolved FRET reads energy transfer from a long-lived donor to a nearby acceptor.
A short description of series [4]: HepG2 cell cytotoxicity, dose response, cytotoxicity control, ATP luminescence, cherry-pick, activator set 2 (AID 1053143). It counts as functional, cell-based.
For series [5], the target named is T1, Oxysterols receptor LXR-beta (Homo sapiens, UniProt P55055).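 Further: agonist activity at LXR measured by a cell-based luminescence readout across a dose range, run as a counterscreen for daf-12 agonists; HEK293 cells with Gal4-LXR fusion and GAL4-driven luciferase reporter; potency for activation of Gal4-LXR reporter so compounds are agonists.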
T1 sequence (P55055 whole entry): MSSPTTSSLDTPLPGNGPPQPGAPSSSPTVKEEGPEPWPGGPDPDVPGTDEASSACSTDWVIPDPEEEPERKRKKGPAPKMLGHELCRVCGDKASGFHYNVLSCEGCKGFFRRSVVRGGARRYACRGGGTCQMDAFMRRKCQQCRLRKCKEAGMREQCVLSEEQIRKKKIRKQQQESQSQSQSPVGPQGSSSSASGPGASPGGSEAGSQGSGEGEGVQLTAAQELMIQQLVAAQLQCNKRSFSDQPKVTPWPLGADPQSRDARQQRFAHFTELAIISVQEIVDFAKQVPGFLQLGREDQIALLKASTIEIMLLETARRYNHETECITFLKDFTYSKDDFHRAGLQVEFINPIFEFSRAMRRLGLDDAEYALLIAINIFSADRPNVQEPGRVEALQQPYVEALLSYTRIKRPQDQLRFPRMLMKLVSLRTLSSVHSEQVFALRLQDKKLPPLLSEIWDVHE
Format: functional, cell-based.

The target in a further series is T2, Estrogen receptor (Homo sapiens, UniProt P03372).
T2 sequence (P03372 whole entry): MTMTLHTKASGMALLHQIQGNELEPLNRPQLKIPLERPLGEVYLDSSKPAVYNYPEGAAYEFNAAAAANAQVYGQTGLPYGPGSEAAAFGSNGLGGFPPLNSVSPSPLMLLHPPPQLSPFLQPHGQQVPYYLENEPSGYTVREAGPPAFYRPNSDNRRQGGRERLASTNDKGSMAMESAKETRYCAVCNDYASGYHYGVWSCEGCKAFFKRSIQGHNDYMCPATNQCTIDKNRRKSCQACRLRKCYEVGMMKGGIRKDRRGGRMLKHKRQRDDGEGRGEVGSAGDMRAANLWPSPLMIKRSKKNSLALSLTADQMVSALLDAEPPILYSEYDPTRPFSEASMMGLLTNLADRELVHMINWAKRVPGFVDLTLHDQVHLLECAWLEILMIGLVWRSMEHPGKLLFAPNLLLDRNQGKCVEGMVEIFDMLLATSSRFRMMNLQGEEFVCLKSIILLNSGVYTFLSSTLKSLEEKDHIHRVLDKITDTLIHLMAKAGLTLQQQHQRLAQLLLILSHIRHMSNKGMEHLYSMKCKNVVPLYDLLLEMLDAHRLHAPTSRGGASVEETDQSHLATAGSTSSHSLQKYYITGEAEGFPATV

The target in the next series is Estrogen receptor beta (Homo sapiens, UniProt Q92731).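 Further: recombinant ER-beta bound to coactivator SRC1 peptide in presence of estradiol agonist; inhibitors block coactivator peptide binding and lower the FRET signal.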
Series [6] is described as follows: Luminescence Cell-Based Dose Retest to Confirm Inhibitors of Cancer Stem Cells. [Related pubchem assays (depositor defined):AID2717, AID2721]. Format: functional. The settings on record: Homo sapiens.
In series [7] the target is Heat shock protein HSP 90-alpha (Homo sapiens, UniProt P07900). Format: functional, organism-based.
Series [8] concerns the target Luciferin 4-monooxygenase (Photinus pyralis, UniProt P08659). Kind of series: firefly luciferase enzyme inhibitors, dose response, biochemical, luminescence (AID 1891).
A short description of series [9]: Luminescence Cell-Based Dose Confirmation HTS to Identify Inhibitors of Platelet Dense Granule Release. [Related pubchem assays: 1663 (Primary HTS), 1678 (Summary of Project)]. Format: functional.
The next series addresses T3, Protein Tat (Human immunodeficiency virus type 1 group M subtype B (isolate HXB2)(HIV-1), UniProt P04608).
T3 sequence (P04608 whole entry): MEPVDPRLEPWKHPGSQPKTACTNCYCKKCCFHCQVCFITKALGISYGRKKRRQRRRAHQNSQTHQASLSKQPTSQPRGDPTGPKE
It counts as functional.

The next series has as its target Cytochrome P450 2C19 (Homo sapiens, UniProt P33261). Kind of series: Cytochrome panel assay with activity outcomes. Panel member name: p450-cyp2c19 Compounds with AC50 equal or less than 10 uM are considered active. Format: functional.
The target in a further series is Cytochrome P450 2C9 (Homo sapiens, UniProt P11712).
The nature of series [10]: cells. Format: functional, cell-based.
The nature of series [11]: cells. It counts as functional, cell-based. This is another data set of the same source.
For series [12], the target named is T4, Trace amine-associated receptor 1 (Homo sapiens, UniProt Q96RJ0).
T4 sequence (Q96RJ0 whole entry): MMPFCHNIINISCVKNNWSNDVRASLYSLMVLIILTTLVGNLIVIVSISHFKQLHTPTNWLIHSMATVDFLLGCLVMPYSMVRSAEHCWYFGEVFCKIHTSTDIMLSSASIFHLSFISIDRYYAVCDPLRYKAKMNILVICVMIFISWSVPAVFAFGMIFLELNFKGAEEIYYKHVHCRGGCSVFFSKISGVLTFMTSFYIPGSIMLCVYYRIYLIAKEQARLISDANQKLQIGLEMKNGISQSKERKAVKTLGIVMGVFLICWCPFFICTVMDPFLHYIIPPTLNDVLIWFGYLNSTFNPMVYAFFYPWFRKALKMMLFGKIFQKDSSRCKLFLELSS
Kind of series: Counterscreen for agonists of the human trace amine associated receptor 1 (hTAAR1): Fluorescence-based cell-based high throughput dose response assay to identify hTAAR1 agonist that also desensitize TAAR1 receptor response. It counts as functional.

Series [13] has as its target T4, Trace amine-associated receptor 1. Kind of series: Fluorescence-based cell-based high throughput dose response assay to identify agonists of the human trace amine associated receptor 1 (TAAR1). It counts as functional.
The target of the next series is Major prion protein (Homo sapiens, UniProt P04156). It counts as functional, cell-based.
For series [14], the target named is T5, Fatty acid synthase (Homo sapiens, UniProt P49327). Kind of series: FAS thioesterase domain inhibitors, dose response, biochemical, endpoint fluorescence intensity, uHTS hits (AID 624327).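 Further: fluorescence from hydrolysis of an O-methyl fluorescein acyl ester substrate by the enzyme.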 Format: functional.
A short description of series [15]: cells.
In series [16] the target is T5, Fatty acid synthase. Kind of series: FAS thioesterase domain inhibitors, dose response, biochemical, kinetic fluorescence intensity (AID 624326).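 Further: rate of fluorescence rise from hydrolysis of a fluorogenic O-methyl fluorescein ester substrate.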 It counts as functional.
The next series concerns the target Cytochrome P450 3A4 (Homo sapiens, UniProt P08684).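 Further: CYP3A4 tested as one member of a cytochrome P450 panel screen.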
The nature of series [17]: P. falciparum Dd2 growth inhibitors, dose response, SYBR Green, cherry-picked samples (AID 1159567). Format: functional, cell-based.
A short description of series [18]: P. falciparum ATP4 D1247Y mutant growth inhibitors, dose response, NITD609-resistant line, SYBR Green, dry powder (AID 1159571).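 Further: parasites synchronized at ring stage by sorbitol before testing.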 Format: functional, cell-based.
The nature of series [19]: HepG2 cell cytotoxicity, dose response, cytotoxicity control, plate reader, dry powder samples (AID 1159569).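 Further: inhibitor potency with signal falling toward the positive control level.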 Format: functional, cell-based.
Series [20] is described as follows: inhibitors of HIV Env-driven cell fusion, dose response, cherry-pick (AID 652057). It counts as functional, cell-based.
Series [21] in a line: P. falciparum Dd2 growth inhibitors, dose response, SYBR Green, dry powder samples (AID 1159566).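 Further: potency for growth inhibition with lower SYBR green DNA signal.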 It counts as functional, cell-based.
Series [22] is described as follows: P. falciparum 3D7-ScDHODH growth inhibitors, dose response, SYBR Green, dry powder samples (AID 1159570).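 Further: parasite growth measured after 72 hours of compound exposure.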 Format: functional, cell-based.
Series [23] can be described thus: Late stage assay provider results from the probe development effort to identify inhibitors of the Plasmodium falciparum M18 Aspartyl Aminopeptidase (M18AAP): radiolabel-based cell-based dose response assay to identify compounds that inhibit P. falciparum growth in RBCs, Set 2.. Format: functional.

As for `O=C1/C(=C/c2cccc(Br)c2)SC(=S)N1CCC(=O)N(CCO)c1ccccc1`, the values for the AC50 (in series [1]; at Paired box protein Pax-8; in series [2]) were 34.3 µM (active), 8.17 µM (active) and 91.4 µM (active), respectively. Moreover, the CC50 in the series on Vero is > 25 µM (active).
Turning to `Cc1ccc(C2SCC(=O)N2Cc2cn3ccsc3n2)o1` (stereo not given), in series [3], the IC50 was > 100 µM (active).
For `O=C(NCC1CCCO1)c1ccc2c3n(nc2c1)-c1ccccc1CO3` (stereo not given), in series [4], the AC50 was > 52 µM (inactive).
As for `O=C(Nc1ccccn1)c1csc2c1CCCC2`, the EC50 in [5] was > 67.5 µM (inactive).
Take `O=C(CCC(=O)Nc1nnc(C2CCCCC2)s1)NCC1CCCO1` (stereo not given): the IC50 on Estrogen receptor and at Estrogen receptor beta was > 50 µM (not active) throughout.
For `CC(Cc1ccccc1)NCCC(c1ccccc1)c1ccccc1` (stereo not given), the half-maximal activity concentration (AC50) in [4] is 14.8 µM (active); in series [6], 10 µM (active).
On to `Oc1ccc(N=Nc2ccc3ccccc3c2)cc1`, for which the values for the AC50 in [7] and in [6] were 4.38 µM (active) and 3.06 µM (active), respectively. Besides, the EC50 in [5] is > 67.5 µM (inactive); in series [8] it was 0.712 µM (active); in [9], 3.76 µM (active).
`O=C1NC(=O)C(=CN2CCc3ccccc32)C(=O)N1`: the IC50 on Protein Tat is > 100 µM (active).
For the compound `COc1ccc(/C=C(/NC(C)=O)C(=O)O)cc1`, the half-maximal activity concentration (AC50) on Cytochrome P450 2C19 is 11.2 µM (inconclusive); at Cytochrome P450 2C9, 10 µM (inconclusive). In addition, the IC50 in series [3] was > 100 µM (active).
Take `CCc1cc2c(CN3CCN(CC)CC3)cc(=O)oc2cc1O`: the IC50 in series [3] was > 100 µM (active).
Regarding `COc1cc(CCN)ccc1O`, the IC50 in “cells [10]” was > 29.9 µM (inactive); in series [12] it was 21.6 µM (inactive). The EC50 in “cells [11]” was > 29.9 µM (inactive); in series [13], 2.4 µM (active).
As for `Cc1ccc(NC(=O)c2cc(S(=O)(=O)N(C)C)ccc2N2CCCC2)cc1F`, the IC50 at Major prion protein was 9.92 µM (active); at Fatty acid synthase [14] it was 13.3 µM (active); in “cells [15]”, > 138 µM (inactive); on Fatty acid synthase [16], 6.47 µM (active).
In the case of `O=C(CC(NCCc1ccccc1)C(=O)O)Nc1ccc(O)cc1` (stereo not given), the IC50 (in the series “cells [10]”; in [12]) was > 29.9 µM (inactive) each time. The EC50 in “cells [11]” is > 29.9 µM (inactive); in series [13] it was 7.65 µM (active).
With `O=C(CSc1ncnc2ccccc12)NCCc1ccccc1`, the IC50 on Major prion protein was 6.69 µM (active); in the series “cells [15]”, > 138 µM (inactive).
With `CC(=O)c1nnn(-c2nc(N)nc(N(c3ccccc3)c3ccccc3)n2)c1C`, the concentration for half-maximal inhibition (IC50) on Major prion protein is 1.92 µM (active); in “cells [15]”, > 138 µM (inactive). Further, the AC50 result at Cytochrome P450 3A4 is “inconclusive”; at Cytochrome P450 2C19 it was 25.1 µM (inconclusive); on Cytochrome P450 2C9, 31.6 µM (inconclusive).
For the compound `c1ccc(CCNC2CCCCCC2)cc1`, the IC50 in the series “cells [10]” is > 29.9 µM (inactive); in series [12] it was 1.72 µM (active). Also, the EC50 in the series “cells [11]” was > 29.9 µM (inactive); in [13] it was 0.495 µM (active).
For the compound `C[C@@H]1CN([C@H](C)CO)S(=O)(=O)c2ccc(-c3ccncc3)cc2O[C@@H]1CN(C)Cc1ccc(Oc2ccccc2)cc1`, the half-maximal activity concentration (AC50) in [17] is 1.16 µM (active); in [18], 0.616 µM (active); in [19], > 100 µM (inactive); in series [20], 22.4 µM (active); in series [21], 0.539 µM (active); in [22], 0.589 µM (active).
For `O=c1[nH]c(=O)n(C2CC(O)C(CO)O2)cc1I` (stereo not given), the EC50 in [5] was > 67.6 µM (inactive).
As to `COc1ccc(CCN(C)c2ccnc3cc(Cl)ccc23)cc1OC`, the IC50 in [23] was 5.75 µM (active).
Regarding `COc1cc(Br)c(CCNc2c3c(nc4ccccc24)CCCC3)cc1OC`, the IC50 in series [23] was 3 µM (active).
The same measure, in the same setting: the same measure for `COc1ccc(CCN(C)c2ccnc3ccccc23)cc1OC`: 12 µM (inactive).
Regarding `O=C(Oc1cccc(/C=N/NC(=O)c2ccccn2)c1)c1ccc([N+](=O)[O-])cc1`, in series [4], the AC50 is > 52 µM (inactive).
`C[C@@H]1CN([C@H](C)CO)S(=O)(=O)c2ccc(-c3cccc(C(=O)N(C)C)c3)cc2O[C@H]1CN(C)Cc1ccc2c(c1)OCO2`: the AC50 in [17] is 2.57 µM (active); in series [18] it was 1.51 µM (active); in [19], 64.7 µM (active); in series [21], 1.3 µM (active); in series [22] it was 2.27 µM (active).
On to `c1cncc(-c2ccc([C@@H]3[C@@H]4CN(Cc5nccs5)C[C@H]3N4)cc2)c1`, for which the AC50 is 2.15 µM (active) in [17]; 2.03 µM (active) in [18]; 79.6 µM (active) in [19]; 1.72 µM (active) in series [21]; 2.97 µM (active) in [22].

A word on the AC50: it is the concentration at which the activity in the assay is half-maximal. The term CC50 denotes the concentration giving 50% cytotoxicity. The term IC50 denotes the concentration at which inhibition is half-maximal. Usually EC50 stands for the midpoint of the concentration-response curve.
